Measured values: US7867980B2, “Lincosamide derivatives and antimicrobial agents comprising the same as active ingredient” (Meiji Seika Kaisha, Ltd., priority 2007, dated 2011)
Values after ≈ are worked out from the molar mass of the structure shown.

Tests used:
Assay in all cases: Antimicrobial activity, minimum growth inhibitory concentration (MIC), agar dilution
Assay type in all cases: cell-based
S. pneumoniae 225 = conditions: Sensitivity disk agar-N+5% horse blood, inoculum about 10^6 CFU/ml
Protocol: (§1) For representative compounds among lincomycin derivatives according to the present invention, the minimum growth inhibitory concentration (MIC, μg/ml) against various pneumococci was measured according to the method described in CHEMOTHERAPY, vol. […] Sensitivity disk agar-N+5% horse blood was used as the medium for the measurement. The amount of bacteria inoculated was about 10^6 CFU/ml.

S. pneumoniae 1913 = conditions: Sensitivity disk agar-N+5% horse blood, inoculum about 10^6 CFU/ml
Protocol: as §1

S. pneumoniae 1820 = conditions: Sensitivity disk agar-N+5% horse blood, inoculum about 10^6 CFU/ml
Protocol: as §1

S. pneumoniae 1700 = conditions: Sensitivity disk agar-N+5% horse blood, inoculum about 10^6 CFU/ml
Protocol: as §1

S. pneumoniae PRC-53 = conditions: inoculum about 10^6 CFU/ml; for minimum growth inhibitory concentration (MIC): Sensitivity disk agar-N+5% horse blood
Protocol: as §1

S. pneumoniae TH-662 = conditions: inoculum about 10^6 CFU/ml; for minimum growth inhibitory concentration (MIC): Sensitivity disk agar-N+5% horse blood
Protocol: as §1

S. pneumoniae IP692 = conditions: Sensitivity disk agar-N+5% horse blood, inoculum about 10^6 CFU/ml
Protocol: as §1

S. pneumoniae DP1 TypeI = conditions: Sensitivity disk agar-N+5% horse blood, inoculum about 10^6 CFU/ml
Protocol: as §1

S. pneumoniae PRC-206 = conditions: inoculum about 10^6 CFU/ml; for minimum growth inhibitory concentration (MIC): Sensitivity disk agar-N+5% horse blood
Protocol: as §1

| minimum growth inhibitory concentration (MIC) (S. pneumoniae 225) | minimum growth inhibitory concentration (MIC) (S. pneumoniae 1913) | minimum growth inhibitory concentration (MIC) (S. pneumoniae 1820) | minimum growth inhibitory concentration (MIC) (S. pneumoniae 1700) | minimum growth inhibitory concentration (MIC) (S. pneumoniae PRC-53) | minimum growth inhibitory concentration (MIC) (S. pneumoniae TH-662) | minimum growth inhibitory concentration (MIC) (S. pneumoniae IP692) | minimum growth inhibitory concentration (MIC) (S. pneumoniae DP1 TypeI) | minimum growth inhibitory concentration (MIC) (S. pneumoniae PRC-206) | MIC (S. pneumoniae 225; Streptococcus pneumoniae) | MIC (S. pneumoniae 1913; Streptococcus pneumoniae) | MIC (S. pneumoniae 1820; Streptococcus pneumoniae) | MIC (S. pneumoniae 1700; Streptococcus pneumoniae) | MIC (S. pneumoniae PRC-53; Streptococcus pneumoniae, PRC53, Sensitivity disk agar-N+5% horse blood) | MIC (S. pneumoniae TH-662; Streptococcus pneumoniae, TH662, Sensitivity disk agar-N+5% horse blood) | MIC (S. pneumoniae IP692; Streptococcus pneumoniae) | MIC (S. pneumoniae DP1 TypeI; Streptococcus pneumoniae, DP1TYPEI) | MIC (S. pneumoniae PRC-206; Streptococcus pneumoniae, PRC206, Sensitivity disk agar-N+5% horse blood) | Structure (SMILES) |
| --- | --- | --- | --- | --- | --- | --- | --- | --- | --- | --- | --- | --- | --- | --- | --- | --- | --- | --- |
| 1 µg/mL | 0.015 µg/mL | 0.25 µg/mL | 0.13 µg/mL | ≦0.008 μg/ml | 0.13 µg/mL | ≦0.008 μg/ml | ≦0.008 μg/ml | 0.25 µg/mL | – | – | – | – | – | – | – | – | – | CCC[C@@H]1CCN[C@H](C(=O)N[C@@H]([C@H]2O[C@H](SC)[C@H](O)[C@@H](O)[C@H]2O)[C@H](C)Sc2ccc(-c3cncnc3)cc2)C1 [Compound 59, Methyl 7-deoxy-7-epi-6-N-((2S,4R)-4-propyl)pipecoloyl-7-(4-(pyrimidin-5-yl)phenylthio)-1-thio-α-lincosamide] |
| – | – | – | – | – | – | – | – | – | 4 µg/mL (≈ 6.77 µM) | 0.015 µg/mL (≈ 0.0254 µM) | 2 µg/mL (≈ 3.39 µM) | 2 µg/mL (≈ 3.39 µM) | ≤ 0.008 µg/mL | 0.5 µg/mL (≈ 0.846 µM) | 0.015 µg/mL (≈ 0.0254 µM) | 0.015 µg/mL (≈ 0.0254 µM) | 2 µg/mL (≈ 3.39 µM) | CCC[C@@H]1CCN(C)[C@H](C(=O)N[C@@H](C2OC(SC)C(O)C(O)C2O)[C@H](C)Sc2ccc(-c3cncnc3)cc2)C1 (stereo partly drawn) [Compound 65] |
| 1 µg/mL | 0.13 µg/mL | 1 µg/mL | 0.5 µg/mL | 0.06 µg/mL | 0.5 µg/mL | 0.13 µg/mL | 0.06 µg/mL | 1 µg/mL | – | – | – | – | – | – | – | – | – | CS[C@H]1O[C@H]([C@H](NC(=O)[C@@H]2C[C@H](CC3CC3)CCN2)[C@H](C)Sc2ccc(C3C=CCN(C)C3)nc2)[C@H](O)[C@H](O)[C@H]1O (stereo partly drawn) [Compound 93, Methyl 6-N-((2S,4R)-4-cyclopropylmethyl)-pipecoloyl-7-deoxy-7-epi-7-(6-(1-methyl-1,2,3,6-tetrahydropyridin-3-yl)pyridin-3-ylthio)-1-thio-α-lincosamide] |

The next lines start with the compound.

| Structure (SMILES) | minimum growth inhibitory concentration (MIC) (S. pneumoniae 225) | minimum growth inhibitory concentration (MIC) (S. pneumoniae 1913) | minimum growth inhibitory concentration (MIC) (S. pneumoniae 1820) | minimum growth inhibitory concentration (MIC) (S. pneumoniae 1700) | minimum growth inhibitory concentration (MIC) (S. pneumoniae PRC-53) | minimum growth inhibitory concentration (MIC) (S. pneumoniae TH-662) | minimum growth inhibitory concentration (MIC) (S. pneumoniae IP692) | minimum growth inhibitory concentration (MIC) (S. pneumoniae DP1 TypeI) | minimum growth inhibitory concentration (MIC) (S. pneumoniae PRC-206) | MIC (S. pneumoniae 225; Streptococcus pneumoniae) | MIC (S. pneumoniae 1913; Streptococcus pneumoniae) | MIC (S. pneumoniae 1820; Streptococcus pneumoniae) | MIC (S. pneumoniae 1700; Streptococcus pneumoniae) | MIC (S. pneumoniae PRC-53; Streptococcus pneumoniae, PRC53, Sensitivity disk agar-N+5% horse blood) | MIC (S. pneumoniae TH-662; Streptococcus pneumoniae, TH662, Sensitivity disk agar-N+5% horse blood) | MIC (S. pneumoniae IP692; Streptococcus pneumoniae) | MIC (S. pneumoniae DP1 TypeI; Streptococcus pneumoniae, DP1TYPEI) | MIC (S. pneumoniae PRC-206; Streptococcus pneumoniae, PRC206, Sensitivity disk agar-N+5% horse blood) |
| --- | --- | --- | --- | --- | --- | --- | --- | --- | --- | --- | --- | --- | --- | --- | --- | --- | --- | --- |
| CCC[C@@H]1C[C@@H](C(=O)N[C@@H]([C@H]2O[C@H](SC)[C@H](O)[C@@H](O)[C@H]2O)[C@H](C)Sc2ccc(-c3cncnc3)c(F)c2)N(C)C1 [Compound 3, 7-Deoxy-7-epi-7-(3-fluoro-4-(pyrimidin-5-yl)phenylthio)lincomycin] | 8 µg/mL | ≦0.008 μg/ml | 2 µg/mL | 2 µg/mL | ≦0.008 μg/ml | 0.25 µg/mL | 0.03 µg/mL | 0.015 µg/mL | 2 µg/mL | – | – | – | – | – | – | – | – | – |
| CCCC1CC(C(=O)NC(C(C)Sc2ccc(-c3nc(C(=O)N(C)C)cs3)cc2)C2OC(SC)C(O)C(O)C2O)N(C)C1 (stereo not drawn) [Compound 17, 7-Deoxy-7-(4-(4-(dimethylcarbamoyl)-thiazol-2-yl)phenylthio)-7-epilincomycin] | 32 µg/mL | 0.03 µg/mL | 4 µg/mL | 2 µg/mL | 0.015 µg/mL | 2 µg/mL | 0.03 µg/mL | 0.03 µg/mL | 4 µg/mL | – | – | – | – | – | – | – | – | – |
